From patent publication US20220380763A1, “NUCLEIC ACID DELIVERY ENHANCER” (NATIONAL UNIVERSITY CORPORATION KOCHI UNIVERSITY, priority 2019, published 2022)
Square brackets hold non-standard residues; d marks the D form. Peptide text beside a SMILES is read from it. * marks the point of attachment. Pteroyl = Nc1nc2ncc(CNc3ccc(C(=O)*)cc3)nc2c(=O)[nH]1; Dab = NCC[C@H](N)C(=O)O

Test system: S2-013 pancreatic cancer cells or HPNE normal pancreatic duct epithelial cells
Settings: chemically-modified Alexa488-labeled SNORA22 siRNA, 2 equivalents, overnight
From the text: Chemically-modified SNORA22 siRNA (SEQ ID NOs: 27 and 28) prepared in Example 7 was labeled with Alexa488 (Thermo Fisher Scientific Inc.) and added with the folic acid-cationic oligopeptide complex (Fol-Dab8B, 2 equivalents) to the culture solution of S2-013 pancreatic cancer cells or HPNE normal pancreatic duct epithelial cells (ATCC) in a 4-well chamber (Thermo Fisher Scientific Inc.) (5×10^4 cells/well).

NCC[C@H](NC(=O)[C@H](CCN)NC(=O)[C@H](CCN)NC(=O)[C@H](CCN)NC(=O)[C@H](CCN)NC(=O)[C@H](CCN)NC(=O)[C@H](CCN)NC(=O)[C@H](CCN)NC(=O)CNC(=O)CNC(=O)CNC(=O)[C@H](CCC(=O)O)NC(=O)c1ccc(NCc2cnc3nc(N)[nH]c(=O)c3n2)cc1)C(N)=O [Fol-Dab8B] (Pteroyl-EGGG[Dab][Dab][Dab][Dab][Dab][Dab][Dab][Dab]-NH2)
uptake of SNORA22 siRNA into S2-013 pancreatic cancer cells relative to normal cells (HPNE): ~3 fold
